From US5834244A, “Factor VIIa inhibitors from Kunitz domain proteins” (Genentech, Inc., priority 1995, dated 1998) come the findings set out here.

Where two headings read alike, the source gives them in different places. Positions of bridges follow the written chain, without caps; N, C: chain ends. No end group written: not given here.

Series [1] deals with Male New Zealand white rabbits. The series can be described thus: Cuticle bleeding time assay. The series is classed as in vivo, rabbit. The following applies: for bleeding compared to the saline control (in words): after 10 minutes. The procedure:
(§1) Male New Zealand white rabbits (~4 kg) were anesthetized to surgical anesthesia plane with an IM injection of Ketamine / Xylaxine. The rabbits were placed supine on a restraining board, warmed to 37° C., and the neck and inner thigh area shaved. Teflon catheters were replaced in a marginal ear vein and femoral artery for drug delivery and sample collection respectively. Prior to treatment, blood samples were collected for coagulation tests (APTT and PT). Bleeding time was assessed from a cut made in the cuticle portion of a hind limb nail. Incisions were made in the neck region and the entire left common carotid artery and its branches were surgically isolated. An ultrasonic flow probe (Transonics®) was placed on the common carotid approximately 5 cm caudal to the common--internal bifurcation. After blood flow reached a stable baseline, drugs (saline or test compounds) were delivered via the marginal ear vein. A deflated embolectomy catheter (Fogarty®, 3F) was then introduced into the lumen of the common via an incision in the lingual branch. Blood flow through the artery was stopped briefly while the catheter was introduced and loosely secured with 2-0 silk tie at the incision site. After the catheter was in place and secure, blood flow was restored. The deflated balloon was advanced to within 2 mm of the flow probe and inflated with saline until resistance of the vessel wall was felt. The catheter was pulled back with a steady motion to the first branch and then deflated. This procedure was repeated a total of six times for each experimental animal, after which the catheter was removed. […] Over 40 minutes, blood samples were taken for APTT and PT measurements, cuticle bleeding times were assessed and blood flow through the carotid monitored. Duration of patency was defined as the total amount of time (maximum=40 minutes) that any measurable blood flow is detected in the artery. Patency rate refers to the percentage of animals tested who had carotid artery blood flow ≥5 minutes. At the end of the experiment the rabbit was euthanized and the carotid artery removed and opened. If any thrombus was present, it was removed, blotted and the weight recorded.
Table 3 below describes the results of the cuticle bleeding time assay at 10 minutes after dosing.

In a further series the target is T1, TF-FVIIa (Homo sapiens, UniProt P08709).
T1 construct: is generated by proteolysis of a single peptide bond from its zymogen Factor VII (FVII); purchased Haematologic Technologies Inc. (FVIIa); TF1-243 made in house in E. coli; host or cells: E. coli (TF1-243)
T1 sequence (P08709 213-466 limits assumed): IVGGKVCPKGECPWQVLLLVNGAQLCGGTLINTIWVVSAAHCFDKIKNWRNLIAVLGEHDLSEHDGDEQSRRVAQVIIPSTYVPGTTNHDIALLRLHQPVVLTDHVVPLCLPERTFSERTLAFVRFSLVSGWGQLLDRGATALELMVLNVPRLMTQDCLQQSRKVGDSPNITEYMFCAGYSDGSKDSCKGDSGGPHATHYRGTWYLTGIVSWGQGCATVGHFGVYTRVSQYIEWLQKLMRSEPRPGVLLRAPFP
T1 sequence (P08709 61-212 limits assumed): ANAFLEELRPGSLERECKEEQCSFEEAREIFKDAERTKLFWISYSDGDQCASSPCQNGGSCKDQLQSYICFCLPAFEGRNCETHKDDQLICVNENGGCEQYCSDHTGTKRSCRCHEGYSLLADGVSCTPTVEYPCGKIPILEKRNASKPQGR
T1 sequence (P13726 33-275 partner limits assumed): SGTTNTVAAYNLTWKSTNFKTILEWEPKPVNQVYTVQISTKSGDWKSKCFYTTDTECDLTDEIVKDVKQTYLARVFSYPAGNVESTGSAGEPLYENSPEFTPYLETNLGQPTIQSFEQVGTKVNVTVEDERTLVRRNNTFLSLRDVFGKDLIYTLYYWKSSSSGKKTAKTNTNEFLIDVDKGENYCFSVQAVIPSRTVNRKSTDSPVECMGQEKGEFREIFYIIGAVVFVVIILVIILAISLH
Put plainly: Enzyme inhibition assay, apparent equilibrium dissociation constant (Ki*) with TF-FVIIa. It counts as biochemical. The procedure:
Aliquots (25 μL) from each well of a microtiter plate containing the serially diluted inhibitors were transferred into new microtiter plates, each containing a different protease (100 μL) in the appropriate buffer. The proteases tested (protease concentration, buffer, substrate) were FVIIa (10 nM, Buffer A, 0.7 mM S2366), FXIa (1.0 nM, Buffer B containing 1 mg/ml BSA, 0.7 mM S2366), plasma kallikrein (3.5 nM, Buffer B, 0.5 mM S2302), and plasmin (15 nM, Buffer B, 1 mM S2251).

Series [2] deals with rabbit plasma. Put plainly: APTT clotting time in rabbit plasma. The series is classed as biochemical. The following applies: 40 μM. Here is the method: (§2) Samples of rabbit plasma were assayed using an MLA 800 coagulometer and Dade reagents. Actin FS® was the activator in the APTT assay. Rabbit Thromboplastin with Ca++ was used for the PT assays; the rabbit thromboplastin was diluted two-fold. All mutant inhibitors tested prolonged clotting by at least one fold. […] A greater than 10 fold prolongation of the clotting time at 40μM was observed.

For series [3], the system named is rabbit plasma. Put plainly: PT clotting time in rabbit plasma. The series is classed as biochemical. The following applies: 40 μM. The procedure: as §2
The test system of the next series is normal human plasma. The series can be described thus: Activated partial thromboplastin time (APTT) assay, initiated by ellagic acid. It counts as biochemical. The procedure: For the activated partial thromboplastin time (APTT) assays, the activation time was set at 120 sec and acquisition time at 300 to 600 sec depending on the expected outcome of the assay. Citrated normal human plasma and inhibitor were incubated together. The sample (plasma and inhibitor) and activator (Instrumentation Laboratories Ellagic acid/Phospholipid mix Test Reagent) were automatically pipetted and incubated together for 2 min at 37° C., then CaCl2 was added and clotting time determined by means of optical assessment. The total incubation time of inhibitor with plasma was ca. 3 min before addition of activator, and 5 min before addition of CaCl2.

The subject of series [4] is Male New Zealand white rabbits. Put plainly: Rabbit deep medial injury model (carotid artery patency, thrombus weight). The series is classed as in vivo. The following applies: for Duration (Min.) of patency / Clot (mps): mean ± sem. The procedure:
as §1

[5] abbreviates: Heparin 1: 25 u/kg bolus then 0.5 u/kg/min infusion.
Setting [6] is: Heparin 2: 25 u/kg bolus then 1 u/kg/min infusion.

For the compound `CC[C@H](C)[C@@H]1NC(=O)[C@H](CC(C)C)NC(=O)[C@H](C)NC(=O)[C@H](CCCNC(=N)N)NC(=O)[C@@H]2CSSC[C@@H]3NC(=O)CNC(=O)CNC(=O)[C@H](Cc4ccc(O)cc4)NC(=O)[C@H](Cc4ccccc4)NC(=O)[C@H](Cc4ccccc4)NC(=O)[C@@H]4CCCN4C(=O)[C@H](C)NC(=O)[C@H](CSSC[C@H](NC(=O)[C@H](Cc4ccc(O)cc4)NC(=O)[C@H](CCC(=O)O)NC(=O)[C@H](CCC(=O)O)NC(=O)[C@H]([C@@H](C)O)NC(=O)[C@H](CC(=O)O)NC(=O)[C@H](Cc4ccccc4)NC(=O)[C@H](CC(N)=O)NC(=O)[C@H](CC(N)=O)NC(=O)[C@H](CCCNC(=N)N)NC(=O)[C@H](CC(N)=O)NC(=O)CNC(=O)[C@H](Cc4ccc(O)cc4)NC3=O)C(=O)N[C@@H](C)C(=O)N[C@@H](C)C(=O)N[C@@H](C(C)C)C(=O)N[C@H](C(=O)NCC(=O)N[C@@H](CO)C(=O)N[C@@H](C)C(=O)O)CSSC[C@H](NC(=O)[C@@H](NC(=O)[C@H](CCC(=O)O)NC(=O)[C@H](CCCNC(=N)N)NC(=O)[C@@H](N)C(C)C)C(C)C)C(=O)N[C@@H](CO)C(=O)N[C@@H](CCC(=O)O)C(=O)N[C@@H](CCC(N)=O)C(=O)N[C@@H](C)C(=O)N[C@@H](CCC(=O)O)C(=O)N3CCC[C@H]3C(=O)NCC(=O)N3CCC[C@H]3C(=O)N2)NC(=O)[C@H](CCCCN)NC(=O)CNC(=O)[C@H](CCC(=O)O)NC(=O)[C@H]([C@@H](C)O)NC(=O)[C@H](C(C)C)NC(=O)[C@H](CC(=O)O)NC(=O)[C@H](Cc2ccccc2)NC(=O)[C@H](Cc2ccc(O)cc2)NC(=O)[C@H](Cc2c[nH]c3ccccc23)NC(=O)[C@H](CCCNC(=N)N)NC(=O)[C@H](CC(C)C)NC1=O` [TF7I-C], the “bleeding compared to the saline control (in words)” value in series [1] is reported as “did not induce prolonged bleeding”.

Regarding “APPI: Alzheimer's amyloid β-protein precursor inhibitor, wild type Kunitz domain (58 residues, SEQ ID NO: 34) (VREVCSEQAETGPCRAMISRWYFDVTEGKCAPFFYGGCGGNRNNFDTEEYCMAVCGSA)”, the “inhibition of TF-FVIIa (in words)” value with TF-FVIIa is on record as “moderate inhibitor”. Further, the Ki in the series with TF-FVIIa (FVIIa 10 nM and TF1-243 50 nM, representative of nine (TF7I-C) and seven (APPI) determinations, read-out: Ki* with TF-FVIIa (FIG. 5, representative determination)) was 300 nM; with TF-FVIIa (FVIIa 10 nM, TF1-243, S2366, pH 7.5, read-out: apparent equilibrium dissociation constant Ki* with TF-FVIIa) it was 301 ± 44 nM. In the series with rabbit plasma [2], the “APTT, fold increase over baseline” value was determined as 4.9 fold. For the same compound, the “PT, fold increase over baseline” value with rabbit plasma [3] stood at 1.4 fold. Further, the “APTT clotting time, fold prolongation” value in the series on normal human plasma (40 μM inhibitor, uninhibited 31 s) is 3.6 fold; with normal human plasma (ca. 7 μM inhibitor), “ca. 3 fold”. Besides, the “Patency (%)” value in series [4] (2 mg/kg IV bolus, animals with carotid blood flow ≥5 minutes) is 40%. Also, the “Duration (Min.) of patency” value in series [4] (2 mg/kg IV bolus, maximum 40 minutes) is 13.4 ± 8.5 min. In addition, in series [4] (2 mg/kg IV bolus, thrombus weight), the “Clot (mps)” value came out at 49.5 ± 18.2 mps. The “Cuticle bleeding time, fold increase over pre dose” value in series [1] (rabbit, in vivo, iv, 2 mg/kg) came to 2.2 ± 0.6 fold.

With Heparin, in series [4] (setting [5]), the “Patency (%)” value is recorded as 67%, the “Clot (mps)” value worked out at 13.6 ± 4.7 mps and the “Duration (Min.) of patency” value worked out at 23.3 ± 6.7 min. Besides, in series [4] (setting [6]), the “Patency (%)” value is 100%, the “Clot (mps)” value was 19.1 ± 8.5 mps and the “Duration (Min.) of patency” value was 35.2 ± 2.2 min. Also, the “patency and clot size compared to the saline control (in words)” value in series [4] (rabbit, in vivo) is “significantly prolonged patency and reduced clot size”. Also, in series [1] (rabbit, in vivo), the “Cuticle bleeding time, fold increase over pre dose” value is recorded as 1.7 ± 0.4 fold.

Take “VREVCSEQAEPGPCRAMMKRWYFDVTEGKCAPFIYGGCYGNRNNFDTEEYCAAVCGSA (disulfide 5-55, 14-38, 30-51) [IV-49C]”: the “Cuticle bleeding time, fold increase over pre dose” value in series [1] (10 minutes after dosing, 2 mg/kg IV bolus) was 1.0 ± 1.0 fold. Besides, the “bleeding compared to the saline control (in words)” value in series [1] is “did not induce prolonged bleeding”.
